From patent US20140242609A1, “Diagnosis and treatment of kidney stones, methods and compositions therefor” (Washington University, priority 2013, published 2014) come the findings set out here.

The assay has as its system CLDN14 mRNA. Nature of the assay: CLDN14 mRNA levels in primary cultures / freshly isolated mouse TALH cells (real-time PCR). Format: cell-based. Particulars: versus vehicle. The method, then:
An immunomagnetic separation method was used to isolate the TAL cells from the mouse kidney (Hou et al., 2009). Antibodies against the TAL cell specific surface antigen, Tamm-Horsfall protein (THP), were coated onto the paramagnetic polystyrene beads (Dynabeads M-280; Dynal), allowing immunoprecipitation of the TAL cells from collagenase digested mouse kidneys. The isolated cells were plated in DMEM medium supplemented with 10% FBS, penicillin/streptomycin, and 1 mM sodium pyruvate for 16 hours, followed by immediate transfection with NFAT or antagomirs.
Total RNA including microRNA was extracted using Trizol (Invitrogen). Cellular mRNA was reverse transcribed using the Superscript-III kit (Invitrogen), followed by real-time PCR amplification using SYBR Green PCR Master Mix (Bio-Rad) and Eppendorf Realplex2S system. The design of claudin-14 primers was described above. The design of pri-miRNA primers was according to Ma et al., (2010). Results were expressed as 2^−ΔCt values with ΔCT=Ctgene−Ctβ-actin.
An immunomagnetic separation method was used to isolate the TALH cells from the mouse kidney. (Gong Y, et al. 2012 and Gong Y, et al. 2013) Antibodies against the TALH cell specific surface antigen, Tamm-Horsfall protein, were coated onto the paramagnetic polystyrene beads (Dynabeads M-280; Dynal), allowing immunoprecipitation of the TALH cells from collagenase digested mouse kidneys. The isolated cells were plated in DMEM medium supplemented with 10% FBS, penicillin/streptomycin, and 1 mM sodium pyruvate for 16 hours, followed by immediate treatment.
Total RNA including microRNA was extracted using Trizol (Invitrogen). Cellular mRNA was reverse transcribed using the Superscript-III kit (Invitrogen), followed by real-time PCR amplification using SYBR Green PCR Master Mix (Bio-Rad) and Eppendorf Realplex2S system. […] Results were expressed as 2^−ΔCt values with ΔCT=Ctgene−Ctβ-actin. […]
Total RNA including microRNA was extracted using Trizol (Invitrogen). […] Results were expressed as 2^−ΔCt values with ΔCT=Ctgene−Ctβ-actin. […]
Background: Real-time PCR tracks product formation cycle by cycle.

For `O=C(CCCCCCC(=O)Nc1ccccc1)NO` [SAHA, Suberanilohydroxamic acid], the “CLDN14 mRNA levels, downregulation” value reads like this: (0.1 μM) 38%; (0.33 μM) 54%.
